Holding throughout (type): functional, organism-based
Experiment [1] relates to Bacillus anthracis. Kind of experiment: Antimicrobial activity against Bacillus anthracis MurA1 AS clone 2G2 assessed as growth inhibition in absence of xylose by antisense-induced hypersensitive testing.
Experiment [2] relates to Bacillus anthracis. Kind of experiment: Antimicrobial activity against Bacillus anthracis MurA1 AS clone 2G2 assessed as growth inhibition in presence of xylose by antisense-induced hypersensitive testing.
Experiment [3] relates to Bacillus anthracis. The experiment can be described thus: Antimicrobial activity against Bacillus anthracis metRS1 AS 1H1 assessed as growth inhibition in presence of xylose by antisense-induced hypersensitive testing.
[4] abbreviates: Bacillus anthracis, MurA1 AS clone 2G2, read-out: IC50.

In brackets after ≈: the same amount, converted by molar mass. Activity calls are given as the source filed them. The calls are words filed in the database; no cut-off is given here.

Turning to `CN(C)[C@@H]1C(O)=C(C(N)=O)C(=O)[C@@]2(O)C(O)=C3C(=O)c4c(O)cccc4[C@@](C)(O)[C@H]3C[C@@H]12` [TETRACYCLINE], the half-inhibitory concentration (IC50) entry in experiment [1] and in experiment [2] was “Not Active” throughout.
As for `CCN1CCN(C(=O)N[C@@H](C(=O)N[C@@H]2C(=O)N3[C@@H]2SC(C)(C)[C@@H]3C(=O)O)c2ccccc2)C(=O)C1=O`, the inhibition result in experiment [2] is “Active”.
On to `Cc1onc(-c2ccccc2)c1C(=O)N[C@@H]1C(=O)N2[C@@H]1SC(C)(C)[C@@H]2C(=O)O`, for which the inhibition entry in experiment [2] is “Active”.
For `CN[C@H](CC(C)C)C(=O)N[C@H]1C(=O)N[C@@H](CC(N)=O)C(=O)N[C@H]2C(=O)N[C@H]3C(=O)N[C@H](C(=O)N[C@H](C(=O)O)c4cc(O)cc(O)c4-c4cc3ccc4O)[C@H](O)c3ccc(c(Cl)c3)Oc3cc2cc(c3O[C@@H]2O[C@H](CO)[C@@H](O)[C@H](O)[C@H]2O[C@H]2C[C@](C)(N)[C@H](O)[C@H](C)O2)Oc2ccc(cc2Cl)[C@H]1O`, the inhibition entry in experiment [2] was “Active”.
With `C[C@@H]1O[C@@H]1P(=O)(O)O` [FOSFOMYCIN], the IC50 in experiment [1] (setting [4]) is 126 µg/mL (≈ 913 µM); in experiment [2] (setting [4]) it was 18 µg/mL.
As for `O=C(O)c1ccc(OCc2nc3ccccc3[nH]2)c(OCc2ccc(Cl)cc2Cl)c1`, the inhibition entry in experiment [3] is “Active”.

Values taken from ChEMBL document CHEMBL1275423 (Antimicrob Agents Chemother, 2008).
